# Test results: patent US4450269A, “Mono-5-substituted-3-chloro-4H-1,2,6-thiadiazin-4-one antifungal agents” (FMC Corporation, priority 1980, dated 1984)
# Read-outs that look alike come from different tables or passages of the source.
# Columns and labels:
# [1] = tested on: Helminthosporium oryzae; assay: Mycelial growth test; conditions: Bipolaris oryzae, 72 h
# [2] = tested on: Alternaria solani; assay: Spore germination test; type: cell-based; conditions: AS, 48 hours
# Procedure: (§1) The test chemical was dissolved or suspended in acetone in an amount such that 0.8 ml of the resulting suspension or solution, mixed with 40 ml water agar produced a water agar solution containing 40, 10, 2.5 and 1 ppm of test chemical. The resulting agar solution, at 50° C., was then divided equally between two sterile petri dishes, each having four separated quadrants, and allowed to solidify. […] quadrants of each dish were flooded with 0.1 ml of a spore suspension in sterile water. Spores of two pathogens, Erysiphe polygoni and Uromyes phaseoli, from infected plant leaves, were brushed on the remaining two quadrants. The tests were then incubated 48 hours, at 24° C.
# (§2) Readings were then taken and the percentage of germinated spores calculated. From this percentage, a spore germination rating was assigned as follows: […]
# [3] = tested on: Erysiphe polygoni; assay: Spore germination test; type: cell-based; conditions: EP, 48 hours
# Procedure: as §1, §2
# [4] = tested on: Botrytis cinerea; assay: Spore germination test; type: cell-based; conditions: BC, 48 hours
# Procedure: as §1, §2
# [5] = tested on: Uromyces phaseoli; assay: Spore germination test; type: cell-based; conditions: UP, 48 hours
# Procedure: as §1, §2
# [6] = tested on: Pyricularia oryzae; type: cell-based; conditions: PO, 48 hours
# [7] = tested on: Sclerotinia fructicola; assay: Mycelial growth test; type: cell-based; conditions: Sclerotinia, 72 h, SF, read-out: Percent Fungus Growth Inhibition
# Source text: | SF = Sclerotinia fructicola
# [8] = tested on: Phytophthora infestans; assay: whole plant or invertebrate; type: in vivo; conditions: Phytophthora infestans, in Solanum lycopersicum, foliar, read-out: Percent Disease Control, foliar, tomato late blight, 150 ppm, protective
# [9] = tested on: Cladosporium cucumerinum; assay: Mycelial growth test; type: cell-based; conditions: Cladosporium cucumerinum, CC, read-out: Percent Fungus Growth Inhibition
# Source text: |CC = Cladosporium cucumerinum
# [10] = tested on: Uromyces phaseoli; assay: whole plant or invertebrate; conditions: foliar, read-out: Percent Disease Control, foliar, bean rust
# [11] = tested on: Uromyces phaseoli; assay: whole plant or invertebrate; conditions: foliar, 24 h, read-out: Percent Disease Control, curative, bean rust
# [12] = tested on: Pythium ultimum; assay: Mycelial growth test; type: cell-based; conditions: Globisporangium ultimum, 72 h, PU, read-out: Percent Fungus Growth Inhibition
# [13] = tested on: Erysiphe polygoni; assay: whole plant or invertebrate; conditions: foliar, 24 h, read-out: Percent Disease Control, curative, bean powdery mildew
# [14] = tested on: Cladosporium cucumerinum; assay: Spore germination test; type: cell-based; conditions: CC, 48 hours
# Procedure: CC = Cladosporium cucumerinum
# as §1, §2
# [15] = tested on: Rhizoctonia solani; assay: Mycelial growth test; type: cell-based; conditions: Rhizoctonia solani, 72 h, RS, read-out: Percent Fungus Growth Inhibition
# Source text: | RS = Rhizoctonia solani
# [16] = tested on: Pyricularia oryzae; assay: whole plant or invertebrate; type: in vivo; conditions: Pyricularia oryzae, foliar, 24 h, read-out: Percent Disease Control, curative, rice blast, 150 ppm, 24 hours after inoculation
# [17] = tested on: Fusarium solani; assay: Mycelial growth test; type: cell-based; conditions: Fusarium solani, 72 h
# [18] = tested on: Phytophthora infestans; type: cell-based; conditions: PI, 48 hours
# [19] = tested on: Pyricularia oryzae; assay: microbe, parasite or virus in culture; type: cell-based; conditions: Pyricularia oryzae, 72 h
# [20] = tested on: Alternaria solani; assay: Mycelial growth test; type: cell-based; conditions: Alternaria solani, 72 h, AS, read-out: Percent Fungus Growth Inhibition
structure (smiles),measurement,setting,value
"COc1cc(Cl)cc(Oc2nsnc(Cl)c2=O)c1 [Compound 52, 3-chloro-5-[(3-chloro-5-methoxy)phenoxy]-4H--1,2,6-thiadiazin-4-one]",inhibition at 5 ppm,"[1]; read-out: Percent Fungus Growth Inhibition, HO, 5 ppm, 72 hours",100%
same,inhibition at 10 ppm,"[1]; read-out: Percent Fungus Growth Inhibition, HO, 10 ppm, 72 hours",89%
same,inhibition at 20 ppm,"[1]; read-out: Percent Fungus Growth Inhibition, HO, 20 ppm, 72 hours",100%
same,inhibition at 40 ppm,"[1]; read-out: Percent Fungus Growth Inhibition, HO, 40 ppm, 72 hours",100%
same,Spore Germination Rating,[2]; 1.0 ppm,4 (80-100)
same,Spore Germination Rating,[2]; 2.5 ppm,3 (60-80)
same,Spore Germination Rating,[2]; 10 ppm,0 (0-10)
same,Spore Germination Rating,[2]; 40 ppm,0 (0-10)
same,Spore Germination Rating,[3]; 1.0 ppm,4 (80-100)
same,Spore Germination Rating,[3]; 2.5 ppm,2 (40-60)
same,Spore Germination Rating,[3]; 10 ppm,0 (0-10)
same,Spore Germination Rating,[3]; 40 ppm,0 (0-10)
same,Spore Germination Rating,[4]; 1.0 ppm,4 (80-100)
same,Spore Germination Rating,[4]; 2.5 ppm,3 (60-80)
same,Spore Germination Rating,[4]; 10 ppm,0 (0-10)
same,Spore Germination Rating,[4]; 40 ppm,0 (0-10)
same,Spore Germination Rating,[5]; 1.0 ppm,2 (40-60)
same,Spore Germination Rating,[5]; 2.5 ppm,0 (0-10)
same,Spore Germination Rating,[5]; 10 ppm,0 (0-10)
same,Spore Germination Rating,[5]; 40 ppm,0 (0-10)
same,Spore Germination Rating,[6]; 1.0 ppm,4 (80-100)
same,Spore Germination Rating,[6]; 2.5 ppm,0 (0-10)
same,Spore Germination Rating,[6]; 10 ppm,0 (0-10)
same,Spore Germination Rating,[6]; 40 ppm,0 (0-10)
same,inhibition at 5 ppm,[7]; 5 ppm,65%
same,inhibition at 10 ppm,[7]; 10 ppm,81%
same,inhibition at 20 ppm,[7]; 20 ppm,100%
same,inhibition at 40 ppm,[7]; 40 ppm,100%
same,pest or weed control at 150 ppm,[8],50%
same,inhibition at 5 ppm,"[9]; 72 h, 5 ppm",15%
same,inhibition at 10 ppm,"[9]; 72 h, 10 ppm",46%
same,inhibition at 40 ppm,"[9]; 72 h, 40 ppm",77%
same,inhibition at 20 ppm,"[9]; CC20, 72 h, 20 ppm",88%
same,pest or weed control at 150 ppm,[10],0%
same,pest or weed control at 150 ppm,[11],0%
same,inhibition at 5 ppm,[12]; 5 ppm,4%
same,inhibition at 10 ppm,[12]; 10 ppm,60%
same,inhibition at 20 ppm,[12]; 20 ppm,100%
same,inhibition at 40 ppm,[12]; 40 ppm,100%
same,pest or weed control at 150 ppm,[13],75%
same,Spore Germination Rating,[14]; 1.0 ppm,4 (80-100)
same,Spore Germination Rating,[14]; 2.5 ppm,0 (0-10)
same,Spore Germination Rating,[14]; 10 ppm,0 (0-10)
same,Spore Germination Rating,[14]; 40 ppm,0 (0-10)
same,inhibition at 5 ppm,[15]; 5 ppm,33%
same,inhibition at 10 ppm,[15]; 10 ppm,64%
same,inhibition at 20 ppm,[15]; 20 ppm,64%
same,inhibition at 40 ppm,[15]; 40 ppm,100%
same,pest or weed control at 150 ppm,[16],95%
same,inhibition at 5 ppm,"[17]; PS, 5 ppm, 72 hours, read-out: Percent Fungus Growth Inhibition",80%
same,inhibition at 10 ppm,"[17]; PS, 10 ppm, 72 hours, read-out: Percent Fungus Growth Inhibition",90%
same,inhibition at 20 ppm,"[17]; PS, 20 ppm, 72 hours, read-out: Percent Fungus Growth Inhibition",100%
same,inhibition at 40 ppm,"[17]; read-out: Percent Fungus Growth Inhibition, PS, 40 ppm, 72 hours",100%
same,Spore Germination Rating,[18]; 1.0 ppm,4 (80-100)
same,Spore Germination Rating,[18]; 2.5 ppm,0 (0-10)
same,Spore Germination Rating,[18]; 10 ppm,0 (0-10)
same,Spore Germination Rating,[18]; 40 ppm,0 (0-10)
same,inhibition at 5 ppm,"[19]; read-out: Percent Fungus Growth Inhibition, PO, 5 ppm, 72 hours",58%
same,inhibition at 10 ppm,"[19]; read-out: Percent Fungus Growth Inhibition, PO, 10 ppm, 72 hours",77%
same,inhibition at 20 ppm,"[19]; read-out: Percent Fungus Growth Inhibition, PO, 20 ppm, 72 hours",100%
same,inhibition at 40 ppm,"[19]; read-out: Percent Fungus Growth Inhibition, PO, 40 ppm, 72 hours",100%
same,inhibition at 5 ppm,[20]; 5 ppm,52%
same,inhibition at 10 ppm,[20]; 10 ppm,71%
same,inhibition at 20 ppm,[20]; 20 ppm,90%
same,inhibition at 40 ppm,[20]; 40 ppm,90%
